From article PMC6291207 (ChemMedChem, 2018) come the findings set out here.

For orientation: Dmax means the largest share of the target that was removed. The Kd is the constant that tells how readily two partners part at equilibrium.

The target in one assay is Aiolos (Homo sapiens, UniProt Q96SW2+Q9UKT9). Particulars: for Dmax (maximal degradation achieved), Aiolos: MM1S cells, 24 hours treatment, normalized to tubulin.
A further assay relates to MM1S cells. Particulars: read-out: IC50 inhibition of cell proliferation, 72 hours, MTS assay.
Another assay concerns the target CRBN (Homo sapiens, UniProt Q96SW2). Kind of assay: SPR binding assay with immobilized His-tagged CRBN. Conditions: for Kd: read-out: CRBN Kd, surface plasmon resonance, average of at least 2 experiments, errors = standard error of the mean, N.B. = no binding observed. For orientation: SPR reads the build-up and loss of mass on a sensor chip optically.

CRBN, sequence (Q96SW2 whole entry): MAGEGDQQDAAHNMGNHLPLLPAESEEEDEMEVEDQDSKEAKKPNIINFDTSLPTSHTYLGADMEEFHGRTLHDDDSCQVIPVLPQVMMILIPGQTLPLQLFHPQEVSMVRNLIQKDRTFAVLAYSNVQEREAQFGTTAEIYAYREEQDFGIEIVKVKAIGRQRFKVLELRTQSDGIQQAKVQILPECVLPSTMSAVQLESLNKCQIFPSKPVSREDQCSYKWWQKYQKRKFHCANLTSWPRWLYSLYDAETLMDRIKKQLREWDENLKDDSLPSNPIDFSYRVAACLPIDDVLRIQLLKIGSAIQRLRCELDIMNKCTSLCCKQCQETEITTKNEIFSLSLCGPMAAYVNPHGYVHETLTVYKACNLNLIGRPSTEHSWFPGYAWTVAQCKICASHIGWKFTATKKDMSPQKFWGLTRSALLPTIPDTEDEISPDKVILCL
Aiolos, sequence (Q9UKT9 whole entry): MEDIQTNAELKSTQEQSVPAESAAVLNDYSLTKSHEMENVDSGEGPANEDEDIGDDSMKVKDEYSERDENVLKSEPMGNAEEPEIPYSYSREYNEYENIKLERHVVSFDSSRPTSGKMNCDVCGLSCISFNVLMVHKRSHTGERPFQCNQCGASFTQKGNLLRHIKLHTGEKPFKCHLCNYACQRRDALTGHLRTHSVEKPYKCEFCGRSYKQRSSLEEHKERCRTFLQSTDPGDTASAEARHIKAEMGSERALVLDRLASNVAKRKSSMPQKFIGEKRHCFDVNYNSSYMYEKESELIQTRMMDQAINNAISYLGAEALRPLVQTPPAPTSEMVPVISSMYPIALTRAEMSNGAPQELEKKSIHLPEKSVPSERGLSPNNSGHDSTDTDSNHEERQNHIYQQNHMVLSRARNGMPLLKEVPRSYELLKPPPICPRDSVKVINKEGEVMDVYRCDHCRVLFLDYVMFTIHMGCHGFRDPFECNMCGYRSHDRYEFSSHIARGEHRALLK
Aiolos, sequence (Q96SW2 whole entry): as the sequence (Q96SW2 whole entry) above
Aiolos, sequence (Q16531 whole entry partner): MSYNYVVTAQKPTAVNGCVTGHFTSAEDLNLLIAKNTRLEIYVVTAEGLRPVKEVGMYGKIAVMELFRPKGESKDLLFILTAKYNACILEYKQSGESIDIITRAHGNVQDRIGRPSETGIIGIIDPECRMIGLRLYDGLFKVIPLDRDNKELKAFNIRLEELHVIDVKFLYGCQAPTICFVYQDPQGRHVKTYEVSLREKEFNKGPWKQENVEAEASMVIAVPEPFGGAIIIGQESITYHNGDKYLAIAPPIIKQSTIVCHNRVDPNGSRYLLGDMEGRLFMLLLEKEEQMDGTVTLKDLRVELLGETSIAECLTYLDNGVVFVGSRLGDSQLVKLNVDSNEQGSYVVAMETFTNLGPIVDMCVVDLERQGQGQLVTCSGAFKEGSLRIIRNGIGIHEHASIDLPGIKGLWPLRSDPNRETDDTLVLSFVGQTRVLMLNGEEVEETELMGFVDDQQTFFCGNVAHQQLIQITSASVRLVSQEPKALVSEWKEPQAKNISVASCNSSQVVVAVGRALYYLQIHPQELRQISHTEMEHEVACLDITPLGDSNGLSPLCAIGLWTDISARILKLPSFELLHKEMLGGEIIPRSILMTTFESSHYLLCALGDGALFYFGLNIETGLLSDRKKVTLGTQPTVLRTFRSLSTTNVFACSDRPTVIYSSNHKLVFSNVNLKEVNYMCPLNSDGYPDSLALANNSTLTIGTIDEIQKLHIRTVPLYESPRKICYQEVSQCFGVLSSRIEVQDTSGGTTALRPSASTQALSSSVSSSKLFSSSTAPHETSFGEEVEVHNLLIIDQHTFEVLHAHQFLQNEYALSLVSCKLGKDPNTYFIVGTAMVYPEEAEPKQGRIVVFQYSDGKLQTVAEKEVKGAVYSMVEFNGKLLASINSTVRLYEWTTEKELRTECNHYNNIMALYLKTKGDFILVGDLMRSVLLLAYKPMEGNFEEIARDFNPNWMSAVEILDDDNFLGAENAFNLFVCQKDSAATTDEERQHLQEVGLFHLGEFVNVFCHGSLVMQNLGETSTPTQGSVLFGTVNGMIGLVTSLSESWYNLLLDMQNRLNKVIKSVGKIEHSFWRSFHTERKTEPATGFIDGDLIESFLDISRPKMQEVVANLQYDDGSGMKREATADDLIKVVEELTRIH

Take `Nc1cccc2c1C(=O)N(C1CCC(=O)NC1=O)C2=O` (centres unmarked) [Compound 13, Pomalidomide, reference compound]: the maximal degradation (Dmax) on Aiolos (MM1.S, read-out: Dmax (maximal degradation achieved), Aiolos) is above 95%.

For the compound `O=C1CCC(N2C(=O)c3cccc(F)c3C2=O)C(=O)N1` (centres unmarked) [Compound 17], in the assay on MM1S cells, the IC50 was 3.57 µM. Moreover, the “fold less affinity for CRBN than Pomalidomide and Compound 19” value on CRBN (compared with Pomalidomide and Compound 19) is listed as “roughly 2 fold”. In addition, the dissociation constant (Kd) on CRBN came out at 0.558 ± 0.051 µM. Besides, the “Dmax (maximal degradation achieved), Aiolos” value at Aiolos came to 83%.

For the compound `Cc1cccc2c1C(=O)N(C1CCC(=O)NC1=O)C2=O` (centres unmarked) [Compound 19], the IC50 with MM1S cells came out at 0.128 µM. Also, on CRBN, the Kd turned out to be 0.325 ± 0.024 µM. Further, the “Dmax (maximal degradation achieved), Aiolos” value on Aiolos amounted to 85%.
